From patent US11135188B2, “Method and composition to improve absorption of therapeutic agents” (Bayer HealthCare LLC, priority 2009, dated 2021)

Test: Compatibility: degradation products of aspirin/carbonate blends by HPLC
Format: physicochemical
Experimental: The degradation products of various combinations of aspirin and various carbonates were determined for different combinations of aspirin and different grades and sources of carbonates to evaluate the compatibility and stability. Milling for about fifteen minutes appeared to slightly induce the production of free salicylic acid (FSA), but not to a significant extent. […] The results are shown in Table 3 (all blend percentages are weight percentages obtained using High Performance Liquid Chromatography (HPLC))

Acetyl Salicylic Salicylic Acid ASSA: 0.00%
FSA (free salicylic acid): 0.00%
Compound: CC(=O)Oc1ccccc1C(=O)O [100% Aspirin-Milled 15 min, Aspirin]
